Experimental data from patent US6737383B1, “Herbicidal oxadiazolidines” (priority 1999, dated 2004).

Columns and labels:
rice = test: Test B flood test rice; format: in vivo, Oryza sativa
Outline: (§1)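 Plants were grown to the 2-leaf stage before treatment with test chemical, then held in a greenhouse for twelve to sixteen days. Injury was visually rated against untreated controls on a 0–10 scale, where 0 is no effect and 10 is complete control.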

surinam grass = test: Test B pre/postemergence surinam grass; format: in vivo, Brachiaria decumbens
Outline: (§2)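 Herbicidal effect was estimated by eye on a ten-point control scale after plants spent twelve to sixteen days in a greenhouse following soil or foliar treatment. Foliar sprays targeted plants at one to four leaves; all doses were formulated in a non-phytotoxic solvent with surfactant.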

crabgrass = test: Test B pre/postemergence crabgrass; format: in vivo, Digitaria sanguinalis
Outline: as §2

sugar beet = test: Test B pre/postemergence sugar beet; format: in vivo, Beta vulgaris
Outline: as §2

bamyardgrass = test: Test B flood test barnyardgrass; format: in vivo, Echinochloa crus-galli
Outline: as §1

morningglory = test: Test B pre/postemergence morningglory; format: in vivo, Ipomoea hederacea
Outline: as §2

soybean = test: Test B pre/postemergence soybean; format: in vivo, Glycine max
Outline: as §2

smallflower flatsedge = test: Test B flood test smallflower flatsedge; format: in vivo, Cyperus difformis
Outline: as §1

pigweed = test: Test B pre/postemergence pigweed; format: in vivo, Amaranthus retroflexus
Outline: as §2

velvetleaf = test: Test B pre/postemergence velvetleaf; format: in vivo, Abutilon theophrasti
Outline: as §2

corn = test: Test B pre/postemergence corn; format: in vivo, Zea mays
Outline: as §2

blackgrass = test: Test B pre/postemergence blackgrass; format: in vivo, Alopecurus myosuroides
Outline: as §2

rape = test: Test B pre/postemergence rape; format: in vivo, Brassica napus
Outline: as §2

wheat = test: Test B pre/postemergence wheat; format: in vivo, Triticum aestivum
Outline: as §2

cocklebur = test: Test B pre/postemergence cocklebur; format: in vivo, Xanthium strumarium
Outline: as §2

wild oat = test: Test B pre/postemergence wild oat; format: in vivo, Avena fatua
Outline: as §2

duck salad = test: Test B flood test duck salad; format: in vivo, Heteranthera limosa
Outline: as §1

giant foxtail = test: Test B pre/postemergence giant foxtail; format: in vivo, Setaria faberii
Outline: as §2

purple nutsedge = test: Test B pre/postemergence purple nutsedge; format: in vivo, Cyperus rotundus
Outline: as §2

[1] = Rate 62 g/ha, flood test species, Pre-emergence, visual evaluation after twelve to sixteen days
[2] = Rate 125 g/ha, under heading Pre-emergence, flood test species, visual evaluation after twelve to sixteen days
[3] = Rate 250 g/ha, Pre-emergence (flood test species), scale 0 to 10, 0 is no effect, 10 is complete control
[4] = Rate 500 g/ha, Pre-emergence section of Table B, 0 to 10 scale (0 no effect, 10 complete control)
[5] = Postemergence, Rate 125 g/ha, scale 0 to 10, 0 is no effect, 10 is complete control
[6] = Postemergence, Rate 500 g/ha, scale 0 to 10, 0 is no effect, 10 is complete control
[7] = Preemergence, Rate 62 g/ha, scale of 0 to 10 where 0 is no effect and 10 is complete control
[8] = Preemergence, Rate 125 g/ha, scale 0 to 10, 0 is no effect, 10 is complete control
[9] = Preemergence, Rate 250 g/ha, scale 0 to 10, 0 is no effect, 10 is complete control
[10] = Rate 62 g/ha, Postemergence, scale 0 to 10 (0 no effect, 10 complete control)
[11] = Postemergence, Rate 250 g/ha, scale 0 to 10
[12] = Preemergence, Rate 500 g/ha, scale of 0 to 10 where 0 is no effect and 10 is complete control

## CC(C)N(C(=O)n1oc(=O)n(CC2=NCCO2)c1=O)c1ccccc1 [Compound 495]
rice; [1]
  Plant response rating, Rice (0 to 10 scale, 0 is no effect, 10 is complete control): 0
rice; [2]
  Rice plant response rating (0 to 10 scale, 0 is no effect, 10 is complete control): 0
rice; [3]
  Rice plant response rating: 0
rice; [4]
  Rice plant response rating: 0
Surinam grass; [5]
  B. signalgrass plant response rating: 0
Surinam grass; Postemergence, Rate 250 g/ha, scale 0 to 10, 0 no effect, 10 complete control
  B. signalgrass plant response rating: 0
Surinam grass; [6]
  Plant response rating, B. signalgrass: 0
Surinam grass; [7]
  Plant response rating, B. signalgrass: 0
Surinam grass; [8]
  B. signalgrass plant response rating: 0
Surinam grass; [9]
  B. signalgrass plant response rating: 0
Surinam grass; Preemergence, Rate 500 g/ha, scale 0 to 10, 0 is no effect, 10 is complete control
  B. signalgrass plant response rating: 0
Surinam grass; [10]
  B. signalgrass plant response rating: 0
crabgrass; [5]
  Crabgrass plant response rating: 0
crabgrass; [11]
  Crabgrass plant response rating: 0
crabgrass; [6]
  Plant response rating, Crabgrass: 0
crabgrass; [7]
  Plant response rating, Crabgrass: 0
crabgrass; [8]
  Crabgrass plant response rating: 0
crabgrass; [12]
  Crabgrass plant response rating: 0
crabgrass; [10]
  Crabgrass plant response rating: 0
Sugar beet; [5]
  Sugarbeets plant response rating: 0
Sugar beet; [6]
  Plant response rating, Sugarbeets: 0
Sugar beet; [7]
  Plant response rating, Sugarbeets: 0
Sugar beet; [8]
  Sugarbeets plant response rating: 0
Sugar beet; [12]
  Sugarbeets plant response rating: 0
Sugar beet; [10]
  Sugarbeets plant response rating: 0
bamyardgrass; [1]
  Plant response rating, Barnyardgrass (0 to 10 scale, 0 is no effect, 10 is complete control): 0
bamyardgrass; [2]
  Barnyardgrass plant response rating (0 to 10 scale, 0 is no effect, 10 is complete control): 0
bamyardgrass; [3]
  Barnyardgrass plant response rating: 0
bamyardgrass; [4]
  Barnyardgrass plant response rating: 0
morningglory; [5]
  Morningglory plant response rating: 1
morningglory; [6]
  Plant response rating, Morningglory: 7
morningglory; [7]
  Plant response rating, Morningglory: 0
morningglory; [8]
  Morningglory plant response rating: 0
morningglory; [12]
  Morningglory plant response rating: 0
morningglory; [10]
  Morningglory plant response rating: 1
soybean; [5]
  Soybean plant response rating: 0
soybean; [6]
  Plant response rating, Soybean: 0
soybean; [7]
  Plant response rating, Soybean: 0
soybean; [8]
  Soybean plant response rating: 0
soybean; [12]
  Soybean plant response rating: 0
soybean; [10]
  Soybean plant response rating: 0
Smallflower flatsedge; [1]
  Plant response rating, S. Flatsedge (0 to 10 scale, 0 is no effect, 10 is complete control): 0
Smallflower flatsedge; [2]
  S. Flatsedge plant response rating (0 to 10 scale, 0 is no effect, 10 is complete control): 0
Smallflower flatsedge; [3]
  S. Flatsedge plant response rating: 0
Smallflower flatsedge; [4]
  S. Flatsedge plant response rating: 0
pigweed; [5]
  Redroot pigweed plant response rating: 0
pigweed; [6]
  Plant response rating, Redroot pigweed: 0
pigweed; [7]
  Plant response rating, Redroot pigweed: 0
pigweed; [8]
  Redroot pigweed plant response rating: 0
pigweed; [12]
  Redroot pigweed plant response rating: 0
pigweed; [10]
  Redroot pigweed plant response rating: 0
velvetleaf; [5]
  Velvetleaf plant response rating: 0
velvetleaf; [6]
  Plant response rating, Velvetleaf: 0
velvetleaf; [7]
  Plant response rating, Velvetleaf: 0
velvetleaf; [8]
  Velvetleaf plant response rating: 0
velvetleaf; [12]
  Velvetleaf plant response rating: 0
velvetleaf; [10]
  Velvetleaf plant response rating: 0
corn; [5]
  Corn plant response rating: 0
corn; [11]
  Corn plant response rating: 0
corn; [6]
  Plant response rating, Corn: 0
corn; [7]
  Plant response rating, Corn: 0
corn; [8]
  Corn plant response rating: 0
corn; [12]
  Corn plant response rating: 0
corn; [10]
  Corn plant response rating: 0
blackgrass; [5]
  Blackgrass plant response rating: 0
blackgrass; [11]
  Blackgrass plant response rating: 0
blackgrass; [6]
  Plant response rating, Blackgrass: 0
blackgrass; [7]
  Plant response rating, Blackgrass: 0
blackgrass; [8]
  Blackgrass plant response rating: 0
blackgrass; [9]
  Blackgrass plant response rating: 0
blackgrass; [12]
  Blackgrass plant response rating: 0
blackgrass; [10]
  Blackgrass plant response rating: 0
rape; [5]
  Rape plant response rating: 0
rape; [6]
  Plant response rating, Rape: 0
rape; [7]
  Plant response rating, Rape: 0
rape; [8]
  Rape plant response rating: 0
rape; [12]
  Rape plant response rating: 0
rape; [10]
  Rape plant response rating: 0
wheat; [5]
  Wheat plant response rating: 0
wheat; [6]
  Plant response rating, Wheat: 0
wheat; [7]
  Plant response rating, Wheat: 0
wheat; [8]
  Wheat plant response rating: 0
wheat; [12]
  Wheat plant response rating: 0
wheat; [10]
  Wheat plant response rating: 0
cocklebur; [5]
  Cocklebur plant response rating: 0
cocklebur; [11]
  Cocklebur plant response rating: 0
cocklebur; [6]
  Plant response rating, Cocklebur: 0
cocklebur; [7]
  Plant response rating, Cocklebur: 0
cocklebur; [8]
  Cocklebur plant response rating: 0
cocklebur; [9]
  Cocklebur plant response rating: 0
cocklebur; [12]
  Cocklebur plant response rating: 0
cocklebur; [10]
  Cocklebur plant response rating: 0
Wild oat; [5]
  Wild oats plant response rating: 0
Wild oat; [6]
  Plant response rating, Wild oats: 0
Wild oat; [7]
  Plant response rating, Wild oats: 0
Wild oat; [8]
  Wild oats plant response rating: 0
Wild oat; [12]
  Wild oats plant response rating: 0
Wild oat; [10]
  Wild oats plant response rating: 0
Duck salad; [1]
  Plant response rating, Ducksalad (0 to 10 scale, 0 is no effect, 10 is complete control): 0
Duck salad; [2]
  Ducksalad plant response rating (0 to 10 scale, 0 is no effect, 10 is complete control): 0
Duck salad; [3]
  Ducksalad plant response rating: 0
Duck salad; [4]
  Ducksalad plant response rating: 0
Giant foxtail; [5]
  Giant foxtail plant response rating: 0
Giant foxtail; [6]
  Plant response rating, Giant foxtail: 0
Giant foxtail; [7]
  Plant response rating, Giant foxtail: 0
Giant foxtail; [8]
  Giant foxtail plant response rating: 0
Giant foxtail; [12]
  Giant foxtail plant response rating: 0
Giant foxtail; [10]
  Giant foxtail plant response rating: 0
Purple nutsedge; [5]
  Nutsedge plant response rating: 0
Purple nutsedge; [6]
  Plant response rating, Nutsedge: 0
Purple nutsedge; [7]
  Plant response rating, Nutsedge: 0
Purple nutsedge; [8]
  Nutsedge plant response rating: 0
Purple nutsedge; [12]
  Nutsedge plant response rating: 0
Purple nutsedge; [10]
  Nutsedge plant response rating: 0
